For one compound, IC50 results are on record in article PMC9142856 (Heliyon, 2022).

In the assay the target is dipeptidyl peptidase-IV (DPP-IV) (Homo sapiens, UniProt P27487). Description: in vitro enzyme inhibition assay, Gly-Pro-p-nitroanilide substrate. The class given is biochemical.

Each structure is given as a SMILES string.

Sequence of dipeptidyl peptidase-IV (DPP-IV) (P27487 39-766): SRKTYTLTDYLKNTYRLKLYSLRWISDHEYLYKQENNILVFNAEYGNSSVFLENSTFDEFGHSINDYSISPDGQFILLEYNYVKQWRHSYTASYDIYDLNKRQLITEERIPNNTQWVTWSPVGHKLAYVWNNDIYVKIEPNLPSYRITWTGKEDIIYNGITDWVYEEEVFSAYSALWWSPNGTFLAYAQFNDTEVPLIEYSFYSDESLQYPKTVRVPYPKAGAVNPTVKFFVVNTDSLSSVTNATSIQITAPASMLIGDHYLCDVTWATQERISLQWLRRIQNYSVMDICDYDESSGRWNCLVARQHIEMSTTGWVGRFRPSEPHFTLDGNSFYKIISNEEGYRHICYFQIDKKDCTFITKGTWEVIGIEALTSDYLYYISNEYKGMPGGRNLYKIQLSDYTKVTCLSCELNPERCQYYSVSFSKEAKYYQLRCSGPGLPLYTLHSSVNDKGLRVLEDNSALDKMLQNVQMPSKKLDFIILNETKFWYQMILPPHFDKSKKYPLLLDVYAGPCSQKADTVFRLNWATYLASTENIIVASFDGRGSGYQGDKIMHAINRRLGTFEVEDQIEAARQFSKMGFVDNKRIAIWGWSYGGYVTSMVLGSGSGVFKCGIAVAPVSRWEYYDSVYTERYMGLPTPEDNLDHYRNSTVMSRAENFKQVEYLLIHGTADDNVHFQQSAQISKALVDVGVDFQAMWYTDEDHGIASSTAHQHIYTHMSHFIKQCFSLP

By IC50 is commonly meant the concentration that inhibits the measured activity by half. Turning to `CC(C)=CCC/C(C)=C/Cc1c(O)ccc(C(=O)/C=C/c2ccc(O)cc2)c1O` [XA, xanthoangelol], the IC50 was determined as 10.5 µM.
